According to US9170266B2, “Fluorescent probe” (THE UNIVERSITY OF TOKYO, priority 2011, dated 2015):
Read-outs that look alike come from different tables or passages of the source.

Experiments:
[1] = Evaluation of calcium fluorescent probes: absorption and fluorescence spectra at various free Ca2+ concentrations; assay type: binding; conditions: for Kd: Ca2+; for Kd / Φfl in 0 μM free [Ca2+] buffer / λabs in 0 μM free [Ca2+] buffer / λfl in 0 μM free [Ca2+] buffer / Φfl in 39 μM free [Ca2+] buffer / λabs in 39 μM free [Ca2+] buffer / λfl in 39 μM free [Ca2+] buffer: 30 mM MOPS buffer pH 7.2, 100 mM KCl, 10 mM EGTA, 22°C; for Change of fluorescence intensity with Ca2+ ion concentration: free Ca2+ 0 to 35/39 μM; for Change of fluorescence intensity with Ca2+ ion concentration / Change of absorption spectra with Ca2+ ion concentration: pH 7.2, 22°C; for Change of absorption spectra with Ca2+ ion concentration: free Ca2+ 0 to 39 μM
Protocol: Fluorescence of Calcium TokyoMagenta obtained in Example 3 was measured in the presence of calcium ions of various concentrations. Free calcium ions at various concentrations (0, 0.017, 0.038, 0.065, 0.100, 0.150, 0.225, 0.351, 0.602, 1.35, and 35 μM) was added to the solution of Calcium TokyoMagenta (1 μM) dissolved in a 30 mM MOPS buffer (pH 7.2) containing 100 mM potassium chloride and 10 mM EGTA, and the fluorescence spectrum was measured at 22° C. (excitation wavelength: 550 nm).
The fluorescent probes prepared in Examples 13 and 14 were evaluated. Ca^2+-dependent changes of absorption spectra and fluorescence spectra of CaTM-1 (a) and CaTM-2 (b) were measured in a 30 mM 3-(N-morpholino)propanesulfonic acid (MPOS) buffer (pH 7.2) containing 100 mM potassium chloride and 10 mM ethylene glycol tetraacetic acid (EGTA) at 22° C. in the presence of various concentrations of free Ca^2+ ions (0, 0.017, 0.038, 0.065, 0.100, 0.150, 0.225, 0.351, 0.602, 1.35, and 39 μM). […] Thus, it was confirmed that they functioned as a fluorescent probe for measuring calcium ions in a sample by using fluorescence.

[2] = pKa from pH-dependent absorbance in phosphate buffer
Protocol: The measurement was performed in a 0.1 M phosphate buffer (pH 9) containing 1% DMSO. pKa was obtained from the absorbance measured in a phosphate buffer (pH 9) by monophasic or biphasic curve fitting.

[3] = Oxidation potential of the benzene ring moiety; assay type: physicochemical; conditions: vs saturated calomel electrode (SCE)
Protocol: (§1) Relationship between the fluorescence quantum yield and the oxidation potential of the benzene ring moiety of 2-Me TokyoMagenta synthesized in Example 1 mentioned above, as well as 2,4-DiMe TokyoMagenta, 2,5-DiMe TokyoMagenta, 2-OMe TokyoMagenta, 2-OMe-5-Me TokyoMagenta, and 2,5-OMe TokyoMagenta of (a) to (e) mentioned above was investigated. The fluorescence quantum yield was measured in a sodium phosphate buffer (pH 9) by using rhodamine B (Φfl=0.65) in ethanol as a control for fluorescence standard, and the oxidation potential was indicated with respect to a saturated calomel electrode (SCE) as a control. The dots plotted in FIG. 1 indicate the results of 2,4-DiMe TokyoMagenta, 2,5-DiMe TokyoMagenta, 2-OMe TokyoMagenta, 2-OMe-5-Me TokyoMagenta, and 2,5-OMe TokyoMagenta from the right, respectively. As clearly seen from the results shown in Table 1 and FIG. 1, the fluorescence quantum yields of the compounds changed depending on the oxidation potentials of the benzene ring moiety.

[4] = Fluorescence quantum yield in sodium phosphate buffer (pH 9), rhodamine B as fluorescence standard; assay type: physicochemical; conditions: standard rhodamine B (Φfl=0.65) in ethanol
Protocol: as §1
The fluorescence quantum yield was measured in a sodium phosphate buffer (pH 9) by using rhodamine B (Φfl=0.65) in ethanol as a control for fluorescence standard.

[5] = test system: A549 cells; assay: Localization of probes in live A549 cells by fluorescence; assay type: cell-based; conditions: live A549 cells loaded with the AM ester; hydrolysed in cell by esterase
Protocol: Among the photographs, (c) to (e) show Rhod-2 localized in the mitochondria. The fluorescence imaging was performed by incubating Rhod-2 AM (3 μM) with Mito Tracker Green FM (0.2 μM). […] The scale bars indicate 10 μm.
(§2) Change of calcium concentration induced by histamine in a HeLa cell was measured by using CaTM-2-AM or Rhod-2-AM. A HeLa cell loaded with 3 μM CaTM-2-AM ((a) to (d)) or Rhod-2-AM ((e) to (h)) in HBSS was stimulated with histamine (1 μM). Further, localization of CaTM-2-AM (a) and Rhod-2-AM (b) in live A549 cells loaded with each of them was investigated by measuring fluorescence.

[6] = test system: HeLa cells; assay: Histamine-induced calcium concentration change in HeLa cells; assay type: cell-based; conditions: HeLa cells loaded with 3 μM AM ester in HBSS, histamine 1 μM; compared with Rhod-2
Protocol: FIG. 8b and FIG. 8c show fluorescence images obtained with CaTM-2 at the times indicated with ▾ in FIG. 8d, and FIG. 8f and FIG. 8g show fluorescence images obtained with Rhod-2 at the times indicated with ▾ in FIG. 8h. FIG. 8d and FIG. 8h show fluorescence change in individual cells specified in FIG. 8a and FIG. 8e, respectively. The scale bars indicate 30 μm.
as §2

[7] = test system: neuronal action potential; assay: Continuous calcium ion imaging with patch clamping in a cell membrane adhered state; assay type: cell-based; conditions: fluorescence method with simultaneous patch clamping
Source text: The result of continuous imaging of calcium ions performed by the patch clamping method in a cell membrane adhered state is shown in FIG. 11.

[8] = Optical characteristics in 0.1 M phosphate buffer containing 1% DMSO, Table 3; assay type: physicochemical; conditions: for λmax,fl: 0.1 M phosphate buffer (pH 9) containing 1% DMSO; for Φfl: 0.1 M phosphate buffer (pH 9), standard 2-Me TokyoMagenta (0.42); for λmax,abs pH 3 / λmax,abs pH 9: 0.1 M phosphate buffer containing 1% DMSO
Protocol: The measurement was performed in a 0.1 M phosphate buffer (pH 9) containing 1% DMSO. pKa was obtained from the absorbance measured in a phosphate buffer (pH 9) by monophasic or biphasic curve fitting. The quantum yield was obtained by using the quantum yield of 2-Me TokyoMagenta (0.42) in a 0.1 M phosphate buffer (pH 9) as the standard.

[9] = in ethanol; control for fluorescence standard; cited from earlier work
[10] = Optical characteristics (absorption, fluorescence, quantum yield) in phosphate buffer, Table 2; conditions: phosphate buffer (pH 9)
Protocol: In the table, the items attached with the letter a were measured in a phosphate buffer (pH 9), and the item attached with the letter b was measured in a 0.1 M phosphate buffer containing 1% DMSO.

[11] = 0.1 M phosphate buffer containing 1% DMSO

**Q.** What does the source list for Calcium TokyoMagenta?
**A.** Kd ([1]; probe 1 μM, excitation 550 nm, read-out: Kd value): 250 nM; Change of fluorescence intensity with Ca2+ ion concentration [1]: Increase of the fluorescence intensity was observed with increase of the calcium ion concentration

**Q.** Which pKa [2, 11] does the source give for 2-Me Ge-TM here?
**A.** 6.7

**Q.** With `COc1ccccc1C1=C2C=CC(=O)C=C2[Si](C)(C)c2cc(O)ccc21` [2-OMe, 2-Methoxy TokyoMagenta] as the compound, how does the “Oxidation potential (V vs SCE)” value [3] read?
**A.** 1.75 V vs SCE

**Q.** And the Φfl [4]?
**A.** 0.31

**Q.** Which “Φfl in 0 μM free [Ca2+] buffer” value [1] does the source give for CaTM-2 here?
**A.** 0.024

**Q.** What about the “λabs in 0 μM free [Ca2+] buffer” value [1] of the same compound?
**A.** 597 nm

**Q.** What about the “λfl in 0 μM free [Ca2+] buffer” value [1] of the same compound?
**A.** 609 nm

**Q.** And the “Φfl in 39 μM free [Ca2+] buffer” value [1]?
**A.** 0.39

**Q.** What about the “λabs in 39 μM free [Ca2+] buffer” value [1] of the same compound?
**A.** 597 nm

**Q.** What about the “λfl in 39 μM free [Ca2+] buffer” value [1] of the same compound?
**A.** 609 nm

**Q.** What about the Kd ([1]; read-out: Kd) of the same compound?
**A.** 200 nM

**Q.** What about the “Change of absorption spectra with Ca2+ ion concentration” value [1] of the same compound?
**A.** not changed

**Q.** What about the “Change of fluorescence intensity with Ca2+ ion concentration” value [1] of the same compound?
**A.** fluorescence intensity was increased with increasing of Ca^2+ ion concentration

**Q.** What about the Intracellular localization [5] of the same compound?
**A.** uniformly distributed in the cytoplasm

**Q.** What about the “Detection of calcium vibration induced by histamine stimulation” value [6] of the same compound?
**A.** more sharply detected the calcium vibration induced by histamine stimulation

**Q.** What about the “Detection of neuronal action potential via transient change of intracellular calcium ion concentration” value [7] of the same compound?
**A.** observed with sufficient sensitivity

**Q.** With `Cc1ccccc1C1=C2C=CC(=O)C(Cl)=C2[Si](C)(C)c2c1ccc(O)c2Cl` [2-Me DCTM] as the compound, how does the “λmax,fl” value [8] read?
**A.** 607 nm

**Q.** And the Φfl [8]?
**A.** 0.48

**Q.** What about the “λmax,abs pH 3” value [8] of the same compound?
**A.** 477 nm

**Q.** And the “λmax,abs pH 9” value [8]?
**A.** 595 nm

**Q.** Which “λmax,fl” value [8] does the source give for `C[Si]1(C)C2=C(Cl)C(=O)C=CC2=C(c2ccccc2C(=O)O)c2ccc(O)c(Cl)c21` [2-COOH DCTM] here?
**A.** 607 nm

**Q.** And the Φfl [8]?
**A.** 0.48

**Q.** And the “λmax,abs pH 9” value [8]?
**A.** 591 nm

**Q.** For CaTM-1, which “Φfl in 0 μM free [Ca2+] buffer” value [1] is on record?
**A.** 0.066

**Q.** What about the “λabs in 0 μM free [Ca2+] buffer” value [1] of the same compound?
**A.** 585 nm

**Q.** And the “λfl in 0 μM free [Ca2+] buffer” value [1]?
**A.** 603 nm

**Q.** What about the “Φfl in 39 μM free [Ca2+] buffer” value [1] of the same compound?
**A.** 0.37

**Q.** What about the “λabs in 39 μM free [Ca2+] buffer” value [1] of the same compound?
**A.** 585 nm

**Q.** What about the “λfl in 39 μM free [Ca2+] buffer” value [1] of the same compound?
**A.** 603 nm

**Q.** And the Kd ([1]; read-out: Kd)?
**A.** 380 nM

**Q.** What about the “Change of absorption spectra with Ca2+ ion concentration” value [1] of the same compound?
**A.** not changed

**Q.** And the “Change of fluorescence intensity with Ca2+ ion concentration” value [1]?
**A.** fluorescence intensity was increased with increasing of Ca^2+ ion concentration

**Q.** For Rhod-2 [reference compound], which Intracellular localization [5] is on record?
**A.** accumulated in mitochondria

**Q.** What does the source list for `COc1ccc(C)cc1C1=C2C=CC(=O)C=C2[Si](C)(C)c2cc(O)ccc21` [2-OMe-5-Me, 2-Methoxy-5-methyl TokyoMagenta]?
**A.** Oxidation potential (V vs SCE) [3]: 1.57 V vs SCE; Φfl [4]: 0.14

**Q.** For `Cc1ccc(C2=C3C=CC(=O)C=C3[Si](C)(C)c3cc(O)ccc32)c(C)c1` [2,4-DiMe, 2,4-Dimethyl TokyoMagenta], which “Oxidation potential (V vs SCE)” value [3] is on record?
**A.** 2.08 V vs SCE

**Q.** What about the Φfl [4] of the same compound?
**A.** 0.41

**Q.** With `CCN(CC)c1ccc2c(-c3ccccc3C(=O)O)c3ccc(=[N+](CC)CC)cc-3oc2c1.[Cl-]` [rhodamine B] as the compound, how does the “Φfl of fluorescence standard” value [9] read?
**A.** 0.65

**Q.** With `COc1ccc(OC)c(C2=C3C=CC(=O)C=C3[Si](C)(C)c3cc(O)ccc32)c1` [2,5-DiOMe, 2,5-Dimethoxy TokyoMagenta] as the compound, how does the “Oxidation potential (V vs SCE)” value [3] read?
**A.** 1.26 V vs SCE

**Q.** What about the Φfl [4] of the same compound?
**A.** 0

**Q.** With `Cc1ccccc1C1=C2C=CC(=O)C=C2[Si](C)(C)c2cc(O)ccc21` [2-Me TM, 2-Me TokyoMagenta] as the compound, how does the “Oxidation potential (V vs SCE)” value [3] read?
**A.** 2.19 V vs SCE

**Q.** And the Φfl [4]?
**A.** 0.42

**Q.** What about the “λmax,fl” value [8] of the same compound?
**A.** 598 nm

**Q.** What about the Φfl [8] of the same compound?
**A.** 0.42

**Q.** What about the “λmax,abs pH 3” value [8] of the same compound?
**A.** 472 nm

**Q.** And the “λmax,abs pH 9” value [8]?
**A.** 582 nm

**Q.** And the pKa [2, 11]?
**A.** 6.8

**Q.** And the pKa ([2]; from absorbance in phosphate buffer by monophasic or biphasic curve fitting)?
**A.** 6.8

**Q.** And the Φfl [10]?
**A.** 0.42

**Q.** And the λabs [10]?
**A.** 582 nm

**Q.** What about the λfl [10] of the same compound?
**A.** 598 nm

**Q.** What does the source list for `CC[Si]1(CC)C2=CC(=O)C=CC2=C(c2ccccc2C)c2ccc(O)cc21` [2-Me DiEtTM]?
**A.** Φfl [10]: 0.48; λabs [10]: 582 nm; λfl [10]: 601 nm

**Q.** Which “λmax,fl” value [8] does the source give for `C[Si]1(C)C2=C(F)C(=O)C=CC2=C(c2ccccc2C(=O)O)c2ccc(O)c(F)c21` [2-COOH DFTM] here?
**A.** 596 nm

**Q.** And the Φfl [8]?
**A.** 0.54

**Q.** And the “λmax,abs pH 9” value [8]?
**A.** 581 nm

**Q.** With `Cc1ccc(C)c(C2=C3C=CC(=O)C=C3[Si](C)(C)c3cc(O)ccc32)c1` [2,5-DiMe, 2,5-Dimethyl TokyoMagenta] as the compound, how does the “Oxidation potential (V vs SCE)” value [3] read?
**A.** 1.98 V vs SCE

**Q.** What about the Φfl [4] of the same compound?
**A.** 0.44

**Q.** For `C[Si]1(C)C2=CC(=O)C=CC2=C(c2ccccc2C(=O)O)c2ccc(O)cc21` [2-COOH TM], which “λmax,fl” value [8] is on record?
**A.** 598 nm

**Q.** And the Φfl [8]?
**A.** 0.38

**Q.** What about the “λmax,abs pH 9” value [8] of the same compound?
**A.** 582 nm

**Q.** With `Cc1ccccc1C1=C2C=CC(=O)C(F)=C2[Si](C)(C)c2c1ccc(O)c2F` [2-Me DFTM] as the compound, how does the “λmax,fl” value [8] read?
**A.** 598 nm

**Q.** What about the Φfl [8] of the same compound?
**A.** 0.57

**Q.** And the “λmax,abs pH 3” value [8]?
**A.** 465 nm

**Q.** And the “λmax,abs pH 9” value [8]?
**A.** 583 nm
